In patent US20240246977A1, “DEGRADATION OF BRUTON'S TYROSINE KINASE (BTK) BY CONJUGATION OF BTK INHIBITORS WITH E3 LIGASE LIGAND AND METHOD OF USE” (BeiGene Switzerland GmbH, priority 2021, published 2024):

Assays:
[1] = tested on: HEK-293 cells; assay: HEK-293 cytotoxicity detection (CellTiter-Glo); type: cell-based; details: Homo sapiens, 72 h, 72 h incubation, CellTiter-Glo luminescence, read-out: HEK293
Method in brief: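 HEK-293 cells exposed 72 h to 8 compounds doses (4-fold dilutions, top stock 5 mM at 500×) in 0.2% DMSO. Viability by CellTiter-Glo luminescence; inhibition normalised to DMSO high control and low control, IC50 from four-parameter curve fit.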

[2] = biological target: BTK (Homo sapiens, UniProt Q06187); assay: BTK cell degradation in TMD-8 cells, HTRF assay; type: cell-based; set-up: endogenous in cells; host or cells: TMD-8 cells; details: 6 h treatment, IC50 (DC50) of BTK degradation
Method in brief: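 BTK levels read by HTRF in lysates of TMD-8 cells exposed to compounds for 6 h, eight concentrations at 6-fold steps in 0.2% DMSO. Percent degradation versus DMSO and low controls was fitted with a four-parameter equation to give DC50; Dmax is maximal degradation.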

Chain of BTK (Q06187 whole entry): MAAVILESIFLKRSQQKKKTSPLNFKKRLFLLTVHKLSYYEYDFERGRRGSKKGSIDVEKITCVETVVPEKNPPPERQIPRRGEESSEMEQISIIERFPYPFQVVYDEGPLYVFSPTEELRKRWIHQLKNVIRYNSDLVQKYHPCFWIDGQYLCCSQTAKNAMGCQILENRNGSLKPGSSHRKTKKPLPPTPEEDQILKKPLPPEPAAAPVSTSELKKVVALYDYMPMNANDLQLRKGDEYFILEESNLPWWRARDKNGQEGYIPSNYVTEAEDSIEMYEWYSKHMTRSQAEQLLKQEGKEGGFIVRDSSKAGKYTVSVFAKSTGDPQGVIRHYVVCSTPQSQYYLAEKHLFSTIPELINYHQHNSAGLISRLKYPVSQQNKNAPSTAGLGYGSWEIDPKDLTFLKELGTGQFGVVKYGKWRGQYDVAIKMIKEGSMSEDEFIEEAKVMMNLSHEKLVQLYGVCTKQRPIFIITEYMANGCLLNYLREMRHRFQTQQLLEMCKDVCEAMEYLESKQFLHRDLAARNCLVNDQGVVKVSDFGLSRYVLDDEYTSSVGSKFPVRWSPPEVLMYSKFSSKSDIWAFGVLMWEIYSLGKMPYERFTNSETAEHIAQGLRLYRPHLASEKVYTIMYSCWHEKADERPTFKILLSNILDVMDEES

SMILES	IC50 [1] [nM]	DC50 [2] [nM]
COc1ccc(F)cc1C(=O)NCc1ccc(-c2nn3c(c2C(N)=O)Nc2ccc(N4CCN(CC5CCN(c6ccc(N7CCC(=O)NC7=O)cc6)CC5)CC4)cc2CC3)cc1C [Example C42, 7-(4-((1-(4-(2,4-dioxotetrahydropyrimidin-1(2H)-yl)phenyl)piperidin-4-yl)methyl)piperazin-1-yl)-2-(4-((5-fluoro-2-methoxybenzamido)methyl)-3-methylphenyl)-9,10-dihydro-4H-benzo[d]pyrazolo[1,5-a][1,3]diazepine-3-carboxamide]	> 10000	5.36
COc1ccccc1C(=O)NCc1cc(F)c(-c2nn3c(c2C(N)=O)Nc2ccc(N4CCN(CC5CCN(c6ccc(N7CCC(=O)NC7=O)cc6)CC5)CC4)cc2CC3)cc1C [Example C48, 7-(4-((1-(4-(2,4-dioxotetrahydropyrimidin-1(2H)-yl)phenyl)piperidin-4-yl)methyl)piperazin-1-yl)-2-(2-fluoro-4-((2-methoxybenzamido)methyl)-5-methylphenyl)-9,10-dihydro-4H-benzo[d]pyrazolo[1,5-a][1,3]diazepine-3-carboxamide]	> 10000	3.52
NC(=O)c1c(-c2ccc(Oc3ccccc3)cc2)nn2c1Nc1cc(C3CCN(CCC4CCN(c5ccc(N6CCC(=O)NC6=O)cc5)CC4)CC3)ccc1CC2 [Example A23, 6-(1-(2-(1-(4-(2,4-dioxotetrahydropyrimidin-1(2H)-yl)phenyl)piperidin-4-yl)ethyl)piperidin-4-yl)-2-(4-phenoxyphenyl)-9,10-dihydro-4H-benzo[d]pyrazolo[1,5-a] [1,3]diazepine-3-carboxamide]	445	9.23
CCC(Nc1cc(C(F)(F)F)ccn1)c1ccc(-c2nn3c(c2C(N)=O)Nc2ccc(N4CCN(CC5CCN(c6ccc(N7CCC(=O)NC7=O)cc6)CC5)CC4)cc2CC3)cc1 (stereo not shown) [Example C17, 7-(4-((1-(4-(2,4-dioxotetrahydropyrimidin-1(2H)-yl)phenyl)piperidin-4-yl)methyl)piperazin-1-yl)-2-(4-(1-((4-(trifluoromethyl)pyridin-2-yl)amino)propyl)phenyl)-9,10-dihydro-4H-benzo[d]pyrazolo[1,5-a][1,3]diazepine-3-carboxamide]	> 10000	55.1
Cc1cccc(NC(=O)c2ccc(-c3nn4c(c3C(N)=O)Nc3ccc(N5CCN(C6CC(c7ccc([C@H]8CCC(=O)NC8=O)cc7)C6)CC5)cc3CC4)c(F)c2C)n1 (stereo partly drawn) [Example B67, (R)-7-(4-(3-(4-(2,6-dioxopiperidin-3-yl)phenyl)cyclobutyl)piperazin-1-yl)-2-(2-fluoro-3-methyl-4-((6-methylpyridin-2-yl)carbamoyl)phenyl)-9,10-dihydro-4H-benzo[d]pyrazolo[1,5-a][1,3]diazepine-3-carboxamide]	96.8	0.622
Cc1cccc(NC(=O)c2ccc(-c3nn4c(c3C(N)=O)Nc3ccc(N5CCN(Cc6ccc7c(c6)C(C)(C)C(=O)N7C6CCC(=O)NC6=O)CC5)cc3CC4)c(F)c2C)n1 (stereo not shown) [Example B60, 7-(4-((1-(2,6-dioxopiperidin-3-yl)-3,3-dimethyl-2-oxoindolin-5-yl)methyl)piperazin-1-yl)-2-(2-fluoro-3-methyl-4-((6-methylpyridin-2-yl)carbamoyl)phenyl)-9,10-dihydro-4H-benzo[d]pyrazolo[1,5-a][1,3]diazepine-3-carboxamide]	> 10000	4.97
COc1ccccc1C(=O)NCc1ccc(-c2nn3c(c2C(N)=O)Nc2ccc(N4CCN(CC5CCN(c6ccc(N7CCC(=O)NC7=O)cc6)CC5)CC4)cc2CC3)cc1C [Example C32, 7-(4-((1-(4-(2,4-dioxotetrahydropyrimidin-1(2H)-yl)phenyl)piperidin-4-yl)methyl)piperazin-1-yl)-2-(4-((2-methoxybenzamido)methyl)-3-methylphenyl)-9,10-dihydro-4H-benzo[d]pyrazolo[1,5-a][1,3]diazepine-3-carboxamide]	> 10000	3.1
Cc1cc(-c2nn3c(c2C(N)=O)Nc2ccc(N4CCN(CC5CCN(c6ccc(N7CCC(=O)NC7=O)cc6)CC5)CC4)cc2CC3)ccc1CNC(=O)c1nc(C(C)(C)C)no1 [Example C8, 3-(tert-butyl)-N-(4-(3-carbamoyl-7-(4-((1-(4-(2,4-dioxotetrahydropyrimidin-1(2H)-yl)phenyl)piperidin-4-yl)methyl)piperazin-1-yl)-9,10-dihydro-4H-benzo[d]pyrazolo[1,5-a][1,3]diazepin-2-yl)-2-methylbenzyl)-1,2,4-oxadiazole-5-carboxamide]	> 10000	15.6
Cc1cccc(NC(=O)c2ccc(-c3nn4c(c3C(N)=O)Nc3ccc(N5CCN(C6CC(c7ccc(N[C@@H]8CCC(=O)NC8=O)cc7)C6)CC5)cc3CC4)c(F)c2C)n1 (stereo partly drawn) [Example B71, (R)-7-(4-(3-(4-((2,6-dioxopiperidin-3-yl)amino)phenyl)cyclobutyl)piperazin-1-yl)-2-(2-fluoro-3-methyl-4-((6-methylpyridin-2-yl)carbamoyl)phenyl)-9,10-dihydro-4H-benzo[d]pyrazolo[1,5-a][1,3]diazepine-3-carboxamide]	> 10000	7.45
Cc1cccc(NC(=O)c2ccc(-c3nn4c(c3C(N)=O)Nc3ccc(N5CCN(CC6CCN(c7cc8c(cc7F)C(=O)N(C7CCC(=O)NC7=O)C8=O)CC6)CC5)cc3CC4)c(F)c2C)n1 (stereo not shown) [Example B55, 7-(4-((1-(2-(2,6-dioxopiperidin-3-yl)-6-fluoro-1,3-dioxoisoindolin-5-yl)piperidin-4-yl)methyl)piperazin-1-yl)-2-(2-fluoro-3-methyl-4-((6-methylpyridin-2-yl)carbamoyl)phenyl)-9,10-dihydro-4H-benzo[d]pyrazolo[1,5-a][1,3]diazepine-3-carboxamide]	> 10000	2.42
Cc1cccc(NC(=O)c2ccc(-c3nn4c(c3C(N)=O)Nc3ccc(N5CCN(CCc6cc(F)c(C7CCC(=O)NC7=O)c(F)c6)CC5)cc3CC4)nc2C)n1 (stereo not shown) [Example B39, 7-(4-(4-(2,6-dioxopiperidin-3-yl)-3,5-difluorophenethyl)piperazin-1-yl)-2-(6-methyl-5-((6-methylpyridin-2-yl)carbamoyl)pyridin-2-yl)-9,10-dihydro-4H-benzo[d]pyrazolo[1,5-a][1,3]diazepine-3-carboxamide]	> 10000	5.66
NC(=O)c1c(-c2ccc(Oc3ccccc3)cc2)nn2c1Nc1ccc(CCC3CCN(c4ccc(NC5CCC(=O)NC5=O)cc4)CC3)cc1CC2 (stereo not shown) [Example A26, 7-(2-(1-(4-((2,6-dioxopiperidin-3-yl)amino)phenyl)piperidin-4-yl)ethyl)-2-(4-phenoxyphenyl)-9,10-dihydro-4H-benzo[d]pyrazolo[1,5-a][1,3] diazepine-3-carboxamide]	283	16
Cc1cc(-c2nn3c(c2C(N)=O)Nc2ccc(N4CCN(CC5CCN(c6ccc(N7CCC(=O)NC7=O)cc6)CC5)CC4)cc2CC3)cc(C)c1C(=O)Nc1cc(C(F)(F)F)ccn1 [Example B7, 2-(3,5-dimethyl-4-((4-(trifluoromethyl)pyridin-2-yl)carbamoyl)phenyl)-7-(4-((1-(4-(2,4-dioxotetrahydropyrimidin-1(2H)-yl)phenyl)piperidin-4-yl)methyl)piperazin-1-yl)-9,10-dihydro-4H-benzo[d]pyrazolo[1,5-a][1,3]diazepine-3-carboxamide]	> 10000	5.37
COc1c(F)cccc1C(=O)NCc1ccc(-c2nn3c(c2C(N)=O)Nc2ccc(N4CCN(CC5CCN(c6ccc(N7CCC(=O)NC7=O)cc6)CC5)CC4)cc2CC3)cc1C [Example C40, 7-(4-((1-(4-(2,4-dioxotetrahydropyrimidin-1(2H)-yl)phenyl)piperidin-4-yl)methyl)piperazin-1-yl)-2-(4-((3-fluoro-2-methoxybenzamido)methyl)-3-methylphenyl)-9,10-dihydro-4H-benzo[d]pyrazolo[1,5-a][1,3]diazepine-3-carboxamide]	> 10000	10.5
CC(C)(C)c1ccc(Oc2ccc(-c3nn4c(c3C(N)=O)Nc3ccc(C5CCN(CC6CCN(c7ccc(N8CCC(=O)NC8=O)cc7)CC6)CC5)cc3CC4)cc2)cc1 [Example A31, 2-(4-(4-(tert-butyl)phenoxy)phenyl)-7-(1-((1-(4-(2,4-dioxotetrahydropyrimidin-1(2H)-yl)phenyl)piperidin-4-yl)methyl)piperidin-4-yl)-9,10-dihydro-4H-benzo[d]pyrazolo[1,5-a][1,3]diazepine-3-carboxamide]	556	11.9
Cc1cc(-c2nn3c(c2C(N)=O)Nc2ccc(N4CCN(CC5CCN(c6ccc(N7CCC(=O)NC7=O)cc6)CC5)CC4)cc2CC3)ccc1C(=O)Nc1cc(C(F)(F)F)ccn1 [Example B5, 7-(4-((1-(4-(2,4-dioxotetrahydropyrimidin-1(2H)-yl)phenyl)piperidin-4-yl)methyl)piperazin-1-yl)-2-(3-methyl-4-((4-(trifluoromethyl)pyridin-2-yl)carbamoyl)phenyl)-9,10-dihydro-4H-benzo[d]pyrazolo[1,5-a][1,3]diazepine-3-carboxamide]	> 10000	1.46
Cc1cccc(NC(=O)c2ccc(-c3nn4c(c3C(N)=O)Nc3ccc(N5CCN(CCc6cc(F)c([C@H]7CCC(=O)NC7=O)c(F)c6)CC5)cc3CC4)c(F)c2C)n1 [Example B63, (R)-7-(4-(4-(2,6-dioxopiperidin-3-yl)-3,5-difluorophenethyl)piperazin-1-yl)-2-(2-fluoro-3-methyl-4-((6-methylpyridin-2-yl)carbamoyl)phenyl)-9,10-dihydro-4H-benzo[d]pyrazolo[1,5-a][1,3]diazepine-3-carboxamide]	> 10000	2.32
